Results published in patent US20070049593A1 (priority 2004, published 2007).
pIC50: −log10 of the molar value. Where a name gives a salt, the structure may show the parent alone.

Target: T1, HCV polymerase (Hepatitis C virus genotype 1b, UniProt P26663)
T1 construct: a region encoding NS5B (J Virol 1991 March, 65(3), 1105-13, 544 amino acids after deletion of 47 amino acids on the C-terminal); 6xHis (C); made in house; host or cells: Escherichia coli
Test: biochemical
Parameters: species or system HCV BK strain
How it was run: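 Recombinant HCV BK-strain NS5B (C-terminal 47 aa deleted, His6-tagged, E. coli), 0.5 μg/ml, run with 5 μg/ml in vitro-transcribed RNA template (polyU/3′X), ATP/GTP/CTP 50 μM, UTP 2 μM plus [3H]UTP, pH 7.5, 25° C, 90 min. TCA-precipitated RNA counted by scintillation; IC50 from activity with vs without compound.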

T1 sequence (P26663 2420-2963): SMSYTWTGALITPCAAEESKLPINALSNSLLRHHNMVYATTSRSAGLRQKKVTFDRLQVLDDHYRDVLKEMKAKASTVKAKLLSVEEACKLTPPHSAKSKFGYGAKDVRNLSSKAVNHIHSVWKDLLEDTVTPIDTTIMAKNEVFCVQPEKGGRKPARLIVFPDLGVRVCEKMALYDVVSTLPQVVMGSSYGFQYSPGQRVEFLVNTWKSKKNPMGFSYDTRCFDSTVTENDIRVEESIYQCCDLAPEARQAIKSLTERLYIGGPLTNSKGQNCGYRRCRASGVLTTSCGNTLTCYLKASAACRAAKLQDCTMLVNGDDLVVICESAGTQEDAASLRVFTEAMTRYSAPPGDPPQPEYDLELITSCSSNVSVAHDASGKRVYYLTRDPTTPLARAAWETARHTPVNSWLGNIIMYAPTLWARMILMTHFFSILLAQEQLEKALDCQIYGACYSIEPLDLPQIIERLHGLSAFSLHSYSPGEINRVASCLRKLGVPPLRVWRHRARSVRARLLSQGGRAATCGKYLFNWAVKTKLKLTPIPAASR

Structure (SMILES)	pIC50
COC(=O)[C@H](Cc1ccc(OCC(=O)N(C)C)cc1)NC(=O)c1ccc2c(C3CCCCC3)c3n(c2c1)CCOc1cc(OC)ccc1-3 [Example 2-383, methyl (S)-2-[(12-cyclohexyl-3-methoxy-6,7-dihydro-5-oxa-7a-azadibenzo[a,e]azulene-9-carbonyl)amino]-3-[4-(dimethylcarbamoylmethoxy)phenyl]propionate]	> 7.00
CC(C)N(CCN1CCn2c(c(C3CCCCC3)c3ccc(C(=O)O)cc32)-c2ccccc21)C(C)C [Example 1-186, 13-cyclohexyl-5-(2-diisopropylaminoethyl)-6,7-dihydro-5H-benzo[5,6][1,4]diazepino[7,1-a]indole-10-carboxylic acid dihydrochloride]	> 7.00
Cc1ccc2c(c1)N(CCN1CCC[C@@H](CCC(=O)N(C)C)C1)CCn1c-2c(C2CCCCC2)c2ccc(C(=O)O)cc21 [Example 1-537, 13-cyclohexyl-5-{2-[(S)-3-(2-dimethylcarbamoylethyl)piperidin-1-yl]ethyl}-3-methyl-6,7-dihydro-5H-benzo[5,6][1,4]diazepino[7,1-a]indole-10-carboxylic acid dihydrochloride]	> 7.00
CCCc1ccc2c(c1)N(CCN1CCCC(CC)C1)CCn1c-2c(C2CCCCC2)c2ccc(C(=O)O)cc21 (stereo not drawn) [Example 1-357, 13-cyclohexyl-5-[2-(3-ethylpiperidin-1-yl)ethyl]-3-propyl-6,7-dihydro-5H-benzo[5,6][1,4]diazepino[7,1-a]indole-10-carboxylic acid dihydrochloride]	> 7.00
CC1CCCN(CCN2CCn3c(c(C4CCCCC4)c4ccc(C(=O)O)cc43)-c3ccc(OCc4ccccc4)cc32)C1 (stereo not drawn) [Example 1-361, 3-benzyloxy-13-cyclohexyl-5-[2-(3-methylpiperidin-1-yl)ethyl]-6,7-dihydro-5H-benzo[5,6][1,4]diazepino[7,1-a]indole-10-carboxylic acid dihydrochloride]	> 7.00
CC(C)(NC(=O)c1ccc2c(C3CCCCC3)c3n(c2c1)CCOc1ccccc1-3)C(=O)N1CCC(CO)CC1 [Example 2-242, N-[2-(4-hydroxymethylpiperidin-1-yl)-1,1-dimethyl-2-oxoethyl]-12-cyclohexyl-6,7-dihydro-5-oxa-7a-azadibenzo[a,e]azulene-9-carboxamide]	> 7.00
Cc1cccc2c1N(CCN1CCCCC1)CCn1c-2c(C2CCCCC2)c2ccc(C(=O)O)cc21 [Example 1-206, 13-cyclohexyl-4-methyl-5-[2-(piperidin-1-yl)ethyl]-6,7-dihydro-5H-benzo[5,6][1,4]diazepino[7,1-a]indole-10-carboxylic acid dihydrochloride]	> 7.00
COc1ccc2c(c1)OCCn1c-2c(C2CCCCC2)c2ccc(C(=O)NC(C)(C)c3ncc(-c4ccc(C(N)=O)cc4)[nH]3)cc21 [Example 2-546, N-{1-[5-(4-carbamoylphenyl)-1H-imidazol-2-yl]-1-methylethyl}-12-cyclohexyl-3-methoxy-6,7-dihydro-5-oxa-7a-azadibenzo[a,e]azulene-9-carboxamide]	> 7.00
COc1ccc2c(c1)OCCn1c-2c(C2CCCCC2)c2ccc(C(=O)NC(C)(C)c3ccc(/C=C/C(=O)O)cc3)cc21 [Example 2-422, (E)-3-(4-{1-[(12-cyclohexyl-3-methoxy-6,7-dihydro-5-oxa-7a-azadibenzo[a,e]azulene-9-carbonyl)amino]-1-methylethyl}phenyl)acrylic acid]	> 7.00
CCC1CCN(CCN2CCn3c(c(C4CCCCC4)c4ccc(C(=O)O)cc43)-c3ccccc32)CC1 [Example 1-73, 13-cyclohexyl-5-[2-(4-ethylpiperidin-1-yl)ethyl]-6,7-dihydro-5H-benzo[5,6][1,4]diazepino[7,1-a]indole-10-carboxylic acid dihydrochloride]	> 7.00
COc1ccc2c(c1)OCCn1c-2c(C2CCCCC2)c2ccc(C(=O)NC(C)(C)C(=O)Nc3ccc(C(=O)O)cc3)cc21 [Example 2-350, 4-{2-[(12-cyclohexyl-3-methoxy-6,7-dihydro-5-oxa-7a-azadibenzo[a,e]azulene-9-carbonyl)amino]-2-methylpropionylamino}benzoic acid]	> 7.00
O=C(O)c1ccc2c(C3CCCCC3)c3n(c2c1)CCN(CCCN1CCCCC1)c1ccccc1-3 [Example 1-111, 13-cyclohexyl-5-[3-(piperidin-1-yl)propyl]-6,7-dihydro-5H-benzo[5,6][1,4]diazepino[7,1-a]indole-10-carboxylic acid dihydrochloride]	> 7.00
O=C(CN1CCn2c(c(C3CCCCC3)c3ccc(C(=O)O)cc32)-c2ccccc21)NC12CC3CC(CC(C3)C1)C2 [Example 1-195, 5-(adamantan-1-ylcarbamoylmethyl)-13-cyclohexyl-6,7-dihydro-5H-benzo[5,6][1,4]diazepino[7,1-a]indole-10-carboxylic acid monohydrochloride]	> 7.00
O=C(O)c1ccc2c(C3CCCCC3)c3n(c2c1)CCOc1c-3cccc1N(CC(=O)N1CCOCC1)CC(=O)N1CCOCC1 [Example 2-359, 4-{bis[2-(morpholin-4-yl)-2-oxoethyl]amino}-12-cyclohexyl-6,7-dihydro-5-oxa-7a-azadibenzo[a,e]azulene-9-carboxylic acid]	> 7.00
COc1ccc2c(c1)OCCn1c-2c(C2CCCCC2)c2ccc(C(=O)NC(C)(C)c3nc4cc(/C=C/C(=O)O)ccc4[nH]3)cc21 [Example 2-411, (E)-3-(2-{1-[(12-cyclohexyl-3-methoxy-6,7-dihydro-5-oxa-7a-azadibenzo[a,e]azulene-9-carbonyl)amino]-1-methylethyl}-1H-benzimidazol-5-yl)acrylic acid]	> 7.00
CCC1CCN(CCN2CCn3c(c(C4CCCCC4)c4ccc(C(=O)O)cc43)-c3ccc(Cl)cc32)C1 (stereo not drawn) [Example 1-383, 3-chloro-13-cyclohexyl-5-[2-(3-ethylpyrrolidin-1-yl)ethyl]-6,7-dihydro-5H-benzo[5,6][1,4]diazepino[7,1-a]indole-10-carboxylic acid dihydrochloride]	> 7.00
O=C(O)Cn1c(CNC(=O)c2ccc3c(C4CCCCC4)c4n(c3c2)CCOc2ccccc2-4)nc2ccccc21 [Example 2-250, (2-{[(12-cyclohexyl-6,7-dihydro-5-oxa-7a-azadibenzo[a,e]azulene-9-carbonyl)amino]methyl}benzimidazol-1-yl)acetic acid]	> 7.00
COCC[C@@H]1CCCN(CCN2CCn3c(c(C4CCCCC4)c4ccc(C(=O)O)cc43)-c3cc(F)c(F)cc32)C1 [Example 1-544, 13-cyclohexyl-2,3-difluoro-5-{2-[(S)-3-(2-methoxyethyl)piperidin-1-yl]ethyl}-6,7-dihydro-5H-benzo[5,6][1,4]diazepino[7,1-a]indole-10-carboxylic acid dihydrochloride]	> 7.00
CCC1COCCN1CCN1CCn2c(c(C3CCCCC3)c3ccc(C(=O)O)cc32)-c2ccc(Cl)cc21 (stereo not drawn) [Example 1-327, 3-chloro-13-cyclohexyl-5-[2-(3-ethylmorpholin-4-yl)ethyl]-6,7-dihydro-5H-benzo[5,6][1,4]diazepino[7,1-a]indole-10-carboxylic acid dihydrochloride]	> 7.00
COCc1cccc(-c2cccc3c2OCCn2c-3c(C3CCCCC3)c3ccc(C(=O)O)cc32)c1 [Example 2-323, 12-cyclohexyl-4-(3-methoxymethylphenyl)-6,7-dihydro-5-oxa-7a-azadibenzo[a,e]azulene-9-carboxylic acid]	> 7.00
CN(C)CCN1CCn2c(c(C3CCCCC3)c3ccc(C(=O)O)cc32)-c2ccc(OCc3cccc([N+](=O)[O-])c3)cc21 [Example 1-579, 13-cyclohexyl-5-(2-dimethylaminoethyl)-3-(3-nitrobenzyloxy)-6,7-dihydro-5H-benzo[5,6][1,4]diazepino[7,1-a]indole-10-carboxylic acid dihydrochloride]	> 7.00
O=C(O)c1ccc2c(C3CCCCC3)c3n(c2c1)CCOc1c(-c2ccccc2CCN2CCCCC2)cccc1-3 [Example 2-553, 12-cyclohexyl-4-{2-[2-(piperidin-1-yl)ethyl]phenyl}-6,7-dihydro-5-oxa-7a-azadibenzo[a,e]azulene-9-carboxylic acid monohydrochloride]	> 7.00
O=C(O)c1ccc2c(C3CCCCC3)c3n(c2c1)CCOc1c(-c2ccccc2CCCN2CCCCC2)cccc1-3 [Example 2-536, 12-cyclohexyl-4-{2-[3-(piperidin-1-yl)propyl]phenyl}-6,7-dihydro-5-oxa-7a-azadibenzo[a,e]azulene-9-carboxylic acid monohydrochloride]	> 7.00
COc1ccc2c(c1)N(CC(C)C)CCn1c-2c(C2CCCCC2)c2ccc(C(=O)O)cc21 [Example 1-483, 13-cyclohexyl-5-isobutyl-3-methoxy-6,7-dihydro-5H-benzo[5,6][1,4]diazepino[7,1-a]indole-10-carboxylic acid]	> 7.00
CCN1CCN(C(=O)CN2CCn3c(c(C4CCCCC4)c4ccc(C(=O)O)cc43)-c3ccc(OC)cc32)CC1 [Example 1-66, 13-cyclohexyl-5-[2-(4-ethylpiperazin-1-yl)-2-oxoethyl]-3-methoxy-6,7-dihydro-5H-benzo[5,6][1,4]diazepino[7,1-a]indole-10-carboxylic acid dihydrochloride]	> 7.00
O=C(O)c1ccc2c(C3CCCCC3)c3n(c2c1)CCN(CCN1CCC[C@H](COc2ccccc2)C1)c1ccccc1-3 [Example 1-485, 13-cyclohexyl-5-[2-((S)-3-phenoxymethylpiperidin-1-yl)ethyl]-6,7-dihydro-5H-benzo[5,6][1,4]diazepino[7,1-a]indole-10-carboxylic acid dihydrochloride]	> 7.00
CN(CC(=O)N1CCCCC1)c1cccc2c1OCCn1c-2c(C2CCCCC2)c2ccc(C(=O)O)cc21 [Example 2-486, 12-cyclohexyl-4-{N-methyl-N-[2-oxo-2-(piperidin-1-yl)ethyl]amino}-6,7-dihydro-5-oxa-7a-azadibenzo[a,e]azulene-9-carboxylic acid]	> 7.00
